Data published in patent US20110318768A1, “METHOD FOR DETERMINING SENSITIVITY OF TUMOR CELLS TO TYROSINE KINASE INHIBITOR AND COMPUTER PROGRAM PRODUCT” (SYSMEX CORPORATION, priority 2010, published 2011).
Like-named read-outs stand apart in the source and are kept apart here.

Experiments:
[1] = system: AU565 breast cancer cell line; assay: Growth inhibition by lapatinib (Cell Titer-Glo); assay type: cell-based; settings: Homo sapiens
Procedure: (§1) The sensitivity of cell lines to EGFR/HER2 inhibitor was examined by culturing breast cancer cell lines shown in Table 3 in the presence of EGFR/HER2 inhibitor and examining growth inhibition effects on the cell lines.
(§2) The breast cancer cell lines shown in Table 3 were seeded in a 96 well assay plate (#3917: Costar) at 4,000 cells/well, and cultured at 37° C. After 24 hours, the medium was changed to a medium containing a DMSO solution of lapatinib ditosylate hydrate (hereafter also referred to as lapatinib; #L-4804: LC Laboratories) with various concentrations, and the culture was continued at 37° C. for 72 hours. The concentrations of lapatinib in the medium were 0 (control), 0.1, 1, 10, 30, 100, 300, 1,000 and 3,000, and 10,000 nM. The concentration of DMSO in the medium is constant (0.1 (v/v) %) in all of the wells. The cell number in the wells at 0 and 72 hours after exchange of the medium was measured using Cell Titer-Glo Luminescent Cell Viability Assay (#G7571: Promega KK.). The lapatinib concentration to yield half the cell number of the control in 72 hours was determined by fitting with a logistic curve and the concentration was IC50. The cell line whose IC50 was less than 1 μM was defined as a “sensitive line”, while the cell line whose IC50 was 1 μM or more was defined as an “insensitive line”.

[2] = system: BT-20 breast cancer cell line; assay: Growth inhibition by lapatinib (Cell Titer-Glo); assay type: cell-based; settings: Homo sapiens
Procedure: as §1, §2

[3] = system: BT-474 breast cancer cell line; assay: Growth inhibition by lapatinib (Cell Titer-Glo); assay type: cell-based; settings: Homo sapiens
Procedure: as §1, §2

[4] = system: BT-483 breast cancer cell line; assay: Growth inhibition by lapatinib (Cell Titer-Glo); assay type: cell-based; settings: Homo sapiens
Procedure: as §1, §2

[5] = system: BT-549 breast cancer cell line; assay: Growth inhibition by lapatinib (Cell Titer-Glo); assay type: cell-based; settings: Homo sapiens
Procedure: as §1, §2

[6] = system: CAMA-1 breast cancer cell line; assay: Growth inhibition by lapatinib (Cell Titer-Glo); assay type: cell-based; settings: Homo sapiens
Procedure: as §1, §2

[7] = system: HCC1419 breast cancer cell line; assay: Growth inhibition by lapatinib (Cell Titer-Glo); assay type: cell-based; settings: Homo sapiens
Procedure: as §1, §2

[8] = system: HCC1428 breast cancer cell line; assay: Growth inhibition by lapatinib (Cell Titer-Glo); assay type: cell-based; settings: Homo sapiens
Procedure: as §1, §2

[9] = system: HCC1569 breast cancer cell line; assay: Growth inhibition by lapatinib (Cell Titer-Glo); assay type: cell-based; settings: Homo sapiens
Procedure: as §1, §2

[10] = system: HCC1806 breast cancer cell line; assay: Growth inhibition by lapatinib (Cell Titer-Glo); assay type: cell-based; settings: Homo sapiens
Procedure: as §1, §2

[11] = system: HCC1937 breast cancer cell line; assay: Growth inhibition by lapatinib (Cell Titer-Glo); assay type: cell-based; settings: Homo sapiens
Procedure: as §1, §2

[12] = system: HCC1954 breast cancer cell line; assay: Growth inhibition by lapatinib (Cell Titer-Glo); assay type: cell-based; settings: Homo sapiens
Procedure: as §1, §2

[13] = system: HCC202 breast cancer cell line; assay: Growth inhibition by lapatinib (Cell Titer-Glo); assay type: cell-based
Procedure: as §1, §2

[14] = system: HS578T breast cancer cell line; assay: Growth inhibition by lapatinib (Cell Titer-Glo); assay type: cell-based; settings: Homo sapiens, Hs-578T
Procedure: as §1, §2

[15] = system: MCF7 breast cancer cell line; assay: Growth inhibition by lapatinib (Cell Titer-Glo); assay type: cell-based; settings: Homo sapiens
Procedure: as §1, §2

[16] = system: MDA-MB-157 breast cancer cell line; assay: Growth inhibition by lapatinib (Cell Titer-Glo); assay type: cell-based; settings: Homo sapiens
Procedure: as §1, §2

[17] = system: MDA-MB-231 breast cancer cell line; assay: Growth inhibition by lapatinib (Cell Titer-Glo); assay type: cell-based; settings: Homo sapiens
Procedure: as §1, §2

[18] = system: MDA-MB-415 breast cancer cell line; assay: Growth inhibition by lapatinib (Cell Titer-Glo); assay type: cell-based; settings: Homo sapiens
Procedure: as §1, §2

[19] = system: MDA-MB-435S breast cancer cell line; assay: Growth inhibition by lapatinib (Cell Titer-Glo); assay type: cell-based; settings: Homo sapiens
Procedure: as §1, §2

[20] = system: MDA-MB-436 breast cancer cell line; assay: Growth inhibition by lapatinib (Cell Titer-Glo); assay type: cell-based; settings: Homo sapiens
Procedure: as §1, §2

[21] = system: MDA-MB-453 breast cancer cell line; assay: Growth inhibition by lapatinib (Cell Titer-Glo); assay type: cell-based; settings: Homo sapiens
Procedure: as §1, §2

[22] = system: MDA-MB-468 breast cancer cell line; assay: Growth inhibition by lapatinib (Cell Titer-Glo); assay type: cell-based; settings: Homo sapiens
Procedure: as §1, §2

[23] = system: SK-BR-3 breast cancer cell line; assay: Growth inhibition by lapatinib (Cell Titer-Glo); assay type: cell-based; settings: Homo sapiens
Procedure: as §1, §2

[24] = system: T-47D breast cancer cell line; assay: Growth inhibition by lapatinib (Cell Titer-Glo); assay type: cell-based; settings: Homo sapiens, T47D
Procedure: as §1, §2

[25] = system: UACC-812 breast cancer cell line; assay: Growth inhibition by lapatinib (Cell Titer-Glo); assay type: cell-based; settings: Homo sapiens
Procedure: as §1, §2

[26] = system: UACC-893 breast cancer cell line; assay: Growth inhibition by lapatinib (Cell Titer-Glo); assay type: cell-based; settings: Homo sapiens
Procedure: as §1, §2

[27] = system: ZR-75-1 breast cancer cell line; assay: Growth inhibition by lapatinib (Cell Titer-Glo); assay type: cell-based; settings: Homo sapiens
Procedure: as §1, §2

[28] = system: ZR-75-30 breast cancer cell line; assay: Growth inhibition by lapatinib (Cell Titer-Glo); assay type: cell-based; settings: Homo sapiens
Procedure: as §1, §2

BT-474 = settings: Konecny et al.; cited from earlier work
SK-Br-3 = settings: Konecny et al.; cited from earlier work
MDA-MB231 = settings: Konecny et al.; cited from earlier work
MCF7 = settings: Konecny et al.; cited from earlier work
T47D = settings: Konecny et al.; cited from earlier work
[29] = 72 hours culture, read-out: IC50
[30] = read-out: Reference example 1 Sensitivity to lapatinib

CS(=O)(=O)CCNCc1ccc(-c2ccc3ncnc(Nc4ccc(OCc5cccc(F)c5)c(Cl)c4)c3c2)o1 [lapatinib, N-(3-chloro-4-[[(3-fluorophenyl)methyl]oxy]phenyl)-6-[5-([[2-(methylsulfonyl)ethyl]amino]methyl)-2-furanyl]-4-quinazolineamine bis(4-methylbenzenesulfonate)monohydrate]
IC50 [1, 29]: 157 nM
IC50 [1, 30]: < 1000 nM
IC50 [2, 29]: > 10000 nM
IC50 [2, 30]: ≥ 1000 nM
IC50 [3, 29]: 80 nM
IC50 [3, 30]: < 1000 nM
IC50 [4, 29]: > 10000 nM
IC50 [4, 30]: ≥ 1000 nM
IC50 [5, 29]: > 10000 nM
IC50 [5, 30]: ≥ 1000 nM
IC50 [6, 29]: > 10000 nM
IC50 [6, 30]: ≥ 1000 nM
IC50 [7, 29]: 124 nM
IC50 [7, 30]: < 1000 nM
IC50 [8, 29]: > 10000 nM
IC50 [8, 30]: ≥ 1000 nM
IC50 [9, 29]: 4820 nM
IC50 [9, 30]: ≥ 1000 nM
IC50 [10, 29]: > 10000 nM
IC50 [10, 30]: ≥ 1000 nM
IC50 [11, 29]: > 10000 nM
IC50 [11, 30]: ≥ 1000 nM
IC50 [12, 29]: 1470 nM
IC50 [12, 30]: ≥ 1000 nM
IC50 [13, 29]: 2470 nM
IC50 [13, 30]: ≥ 1000 nM
IC50 [14, 29]: > 10000 nM
IC50 [14, 30]: ≥ 1000 nM
IC50 [15, 29]: > 10000 nM
IC50 [15, 30]: ≥ 1000 nM
IC50 [16, 29]: > 10000 nM
IC50 [16, 30]: ≥ 1000 nM
IC50 [17, 29]: > 10000 nM
IC50 [17, 30]: ≥ 1000 nM
IC50 [18, 29]: > 10000 nM
IC50 [18, 30]: ≥ 1000 nM
IC50 [19, 29]: > 10000 nM
IC50 [19, 30]: ≥ 1000 nM
IC50 [20, 29]: > 10000 nM
IC50 [20, 30]: ≥ 1000 nM
IC50 [21, 29]: 309 nM
IC50 [21, 30]: < 1000 nM
IC50 [22, 29]: 3780 nM
IC50 [22, 30]: ≥ 1000 nM
IC50 [23, 29]: 315 nM
IC50 [23, 30]: < 1000 nM
IC50 [24, 29]: > 10000 nM
IC50 [24, 30]: ≥ 1000 nM
IC50 [25, 29]: 490 nM
IC50 [25, 30]: < 1000 nM
IC50 [26, 29]: 482 nM
IC50 [26, 30]: < 1000 nM
IC50 [27, 29]: > 10000 nM
IC50 [27, 30]: ≥ 1000 nM
IC50 [28, 29]: 211 nM
IC50 [28, 30]: < 1000 nM
lapatinib sensitivity of cell line (BT-474): sensitive
lapatinib sensitivity of cell line (SK-Br-3): sensitive
lapatinib sensitivity of cell line (MDA-MB231): insensitive
lapatinib sensitivity of cell line (MCF7): insensitive
lapatinib sensitivity of cell line (T47D): insensitive
